Reference: ChEMBL document CHEMBL1201862, “PubChem BioAssay data set” (2004)
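Briefly, cells in 96-well plates were exposed to five compound concentrations for 48 h, and endpoints were estimated by linear interpolation. Abbreviation: GI50, concentration required for 50% inhibition of growth.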 Active and inactive are the calls of the source. No stated cut-off is given here; in the data, active = GI50 up to about 1.1 µM and inactive = higher.

Assays:
Experiment in all cases: NCI-60 cell line screen, 48 h
M14 = test system: M14
NCI-H460 = test system: NCI-H460
MDA-MB-435 = test system: MDA-MB-435
A498 = test system: A498
IGROV-1 = test system: IGROV-1
OVCAR-8 = test system: OVCAR-8
SNB-19 = test system: SNB-19
HOP-62 = test system: HOP-62
CCRF-CEM = test system: CCRF-CEM
HOP-92 = test system: HOP-92
LOX IMVI = test system: LOX IMVI
HL-60 = test system: HL-60
ACHN = test system: ACHN
UACC-62 = test system: UACC-62
TK-10 = test system: TK-10
SK-MEL-5 = test system: SK-MEL-5
KM12 = test system: KM12
NCI-H522 = test system: NCI-H522
SF-295 = test system: SF-295

With `COc1ccc(/C=C2\N=C(SC)N(C)C2=O)cc1` the GI50 (M14) was 82.6 µM (inactive), the GI50 (NCI-H460) was 99.1 µM (inactive) and the GI50 (MDA-MB-435) was 51.4 µM (inactive). For the same compound, the GI50 (A498) was 37.8 µM (inactive), the GI50 (IGROV-1) was 48 µM (inactive) and the GI50 (OVCAR-8) was > 100 µM (inactive). For the same compound, the GI50 (SNB-19) was > 100 µM (inactive), the GI50 (HOP-62) was 96.8 µM (inactive) and the GI50 (CCRF-CEM) was > 100 µM (inactive). For the same compound, the GI50 (HOP-92) was > 100 µM (inactive), the GI50 (LOX IMVI) was 75.2 µM (inactive) and the GI50 (HL-60) was 27.5 µM (inactive). For the same compound, the GI50 (ACHN) was 38.8 µM (inactive), the GI50 (UACC-62) was 70.3 µM (inactive) and the GI50 (TK-10) was > 100 µM (inactive). For the same compound, the GI50 (SK-MEL-5) was 42.3 µM (inactive).
For `CCC1(CC)C(=O)NN(C(=O)c2ccccc2)C1=O`, the GI50 (M14) was > 100 µM (inactive), the GI50 (KM12) was 6.49 µM (inactive) and the GI50 (NCI-H460) was > 100 µM (inactive). The GI50 (MDA-MB-435) was > 100 µM (inactive), the GI50 (IGROV-1) was > 100 µM (inactive) and the GI50 (OVCAR-8) was > 100 µM (inactive). For the same compound, the GI50 (SNB-19) was > 100 µM (inactive), the GI50 (HOP-62) was > 100 µM (inactive) and the GI50 (CCRF-CEM) was 95.7 µM (inactive). The GI50 (LOX IMVI) was > 100 µM (inactive), the GI50 (HL-60) was > 100 µM (inactive) and the GI50 (ACHN) was > 100 µM (inactive). The GI50 (UACC-62) was > 100 µM (inactive), the GI50 (TK-10) was > 100 µM (inactive) and the GI50 (NCI-H522) was > 100 µM (inactive). For the same compound, the GI50 (SF-295) was > 100 µM (inactive) and the GI50 (SK-MEL-5) was > 100 µM (inactive).
`COc1cc2c(/C=C3/C(=O)Nc4ccc(O)cc43)c(Cl)n(Cc3ccccc3)c2cc1C` was tested, and the GI50 (M14) was 0.6 µM (active), the GI50 (KM12) was 0.265 µM (active) and the GI50 (NCI-H460) was 0.553 µM (active). For the same compound, the GI50 (MDA-MB-435) was 0.078 µM (active), the GI50 (IGROV-1) was 0.682 µM (active) and the GI50 (OVCAR-8) was 1.43 µM (inactive). For the same compound, the GI50 (SNB-19) was 0.596 µM (active), the GI50 (CCRF-CEM) was 0.873 µM (active) and the GI50 (HOP-92) was 12.8 µM (inactive). The GI50 (LOX IMVI) was 0.558 µM (active), the GI50 (HL-60) was 0.306 µM (active) and the GI50 (ACHN) was 0.628 µM (active). For the same compound, the GI50 (UACC-62) was 2.37 µM (inactive), the GI50 (TK-10) was 3.36 µM (inactive) and the GI50 (NCI-H522) was 1.22 µM (inactive). For the same compound, the GI50 (SF-295) was 0.323 µM (active) and the GI50 (SK-MEL-5) was 0.266 µM (active).
With `CC(NNC(=O)c1ccc[n+]([BH2-]C#N)c1)c1ccccc1` (configuration not stated) the GI50 (M14) was > 100 µM (inactive), the GI50 (KM12) was > 100 µM (inactive) and the GI50 (NCI-H460) was > 100 µM (inactive). The GI50 (MDA-MB-435) was > 100 µM (inactive), the GI50 (IGROV-1) was > 100 µM (inactive) and the GI50 (OVCAR-8) was > 100 µM (inactive). The GI50 (SNB-19) was > 100 µM (inactive), the GI50 (HOP-62) was > 100 µM (inactive) and the GI50 (CCRF-CEM) was 78.7 µM (inactive). For the same compound, the GI50 (HOP-92) was > 100 µM (inactive), the GI50 (LOX IMVI) was > 100 µM (inactive) and the GI50 (HL-60) was 86.1 µM (inactive). The GI50 (ACHN) was > 100 µM (inactive), the GI50 (UACC-62) was > 100 µM (inactive) and the GI50 (TK-10) was > 100 µM (inactive). The GI50 (NCI-H522) was > 100 µM (inactive), the GI50 (SF-295) was > 100 µM (inactive) and the GI50 (SK-MEL-5) was > 100 µM (inactive).
In the case of `CCN(CC)CCCC(C)NC(=O)c1cc(-c2nccn2C)nc2ccc(C)cc12` (configuration not stated), the GI50 (M14) is reported as > 100 µM (inactive), the GI50 (KM12) is reported as > 100 µM (inactive) and the GI50 (NCI-H460) is reported as 33 µM (inactive). For the same compound, the GI50 (MDA-MB-435) was > 100 µM (inactive), the GI50 (A498) was > 100 µM (inactive) and the GI50 (IGROV-1) was > 100 µM (inactive). The GI50 (OVCAR-8) was > 100 µM (inactive), the GI50 (SNB-19) was > 100 µM (inactive) and the GI50 (HOP-62) was > 100 µM (inactive). The GI50 (HOP-92) was > 100 µM (inactive), the GI50 (LOX IMVI) was > 100 µM (inactive) and the GI50 (HL-60) was > 100 µM (inactive). For the same compound, the GI50 (ACHN) was > 100 µM (inactive), the GI50 (UACC-62) was > 100 µM (inactive) and the GI50 (TK-10) was > 100 µM (inactive). For the same compound, the GI50 (SK-MEL-5) was > 100 µM (inactive).
With `O=c1[nH]c2cc3cccnc3c(Cl)c2nc1CBr` the GI50 (M14) was 13.5 µM (inactive), the GI50 (KM12) was 15.5 µM (inactive) and the GI50 (NCI-H460) was 19 µM (inactive). For the same compound, the GI50 (MDA-MB-435) was 16 µM (inactive), the GI50 (IGROV-1) was 2.92 µM (inactive) and the GI50 (OVCAR-8) was 17.9 µM (inactive). For the same compound, the GI50 (SNB-19) was 5.73 µM (inactive), the GI50 (HOP-62) was 15.5 µM (inactive) and the GI50 (CCRF-CEM) was 5.79 µM (inactive). The GI50 (HOP-92) was 14.1 µM (inactive), the GI50 (LOX IMVI) was 13.9 µM (inactive) and the GI50 (HL-60) was 20.3 µM (inactive). For the same compound, the GI50 (ACHN) was 7.4 µM (inactive), the GI50 (UACC-62) was 12.4 µM (inactive) and the GI50 (TK-10) was 21.7 µM (inactive). For the same compound, the GI50 (NCI-H522) was 11 µM (inactive), the GI50 (SF-295) was 21.6 µM (inactive) and the GI50 (SK-MEL-5) was 17.5 µM (inactive).
With `C=C(C1=CC(=O)C(C)(C)O1)[C@@H]1CC=C([C@@H]2CC[C@H]3[C@@]2(C)CC[C@H]2C(C)(C)C(=O)[C@H](O)C[C@]32C)[C@H](O)O1` the GI50 (M14) was 1.58 µM (inactive), the GI50 (KM12) was 3.86 µM (inactive) and the GI50 (NCI-H460) was 13 µM (inactive). For the same compound, the GI50 (MDA-MB-435) was 2.49 µM (inactive), the GI50 (A498) was 5.16 µM (inactive) and the GI50 (IGROV-1) was 2.18 µM (inactive). For the same compound, the GI50 (OVCAR-8) was 2.07 µM (inactive), the GI50 (SNB-19) was 10.2 µM (inactive) and the GI50 (HOP-62) was 3.15 µM (inactive). For the same compound, the GI50 (CCRF-CEM) was 0.729 µM (active), the GI50 (HOP-92) was 1.98 µM (inactive) and the GI50 (LOX IMVI) was 1.81 µM (inactive). The GI50 (HL-60) was 2.24 µM (inactive), the GI50 (ACHN) was 1.66 µM (inactive) and the GI50 (UACC-62) was 4.88 µM (inactive). For the same compound, the GI50 (TK-10) was 1.19 µM (inactive), the GI50 (SF-295) was 8.04 µM (inactive) and the GI50 (SK-MEL-5) was 11.7 µM (inactive).
In the case of `CC(CO)(CO)N1C(=O)C2C3c4ccccc4C(c4ccccc43)C2C1=O` (configuration not stated), the GI50 (M14) is reported as > 100 µM (inactive), the GI50 (KM12) is reported as > 100 µM (inactive) and the GI50 (NCI-H460) is reported as > 100 µM (inactive). For the same compound, the GI50 (MDA-MB-435) was > 100 µM (inactive), the GI50 (A498) was 64 µM (inactive) and the GI50 (IGROV-1) was > 100 µM (inactive). The GI50 (OVCAR-8) was > 100 µM (inactive), the GI50 (SNB-19) was > 100 µM (inactive) and the GI50 (HOP-62) was > 100 µM (inactive). The GI50 (CCRF-CEM) was > 100 µM (inactive), the GI50 (HL-60) was > 100 µM (inactive) and the GI50 (ACHN) was > 100 µM (inactive). The GI50 (UACC-62) was > 100 µM (inactive), the GI50 (TK-10) was > 100 µM (inactive) and the GI50 (NCI-H522) was > 100 µM (inactive). The GI50 (SF-295) was > 100 µM (inactive) and the GI50 (SK-MEL-5) was > 100 µM (inactive).
